One data set has as its system influenza virus. As to the kind of experiment: Inhibition of influenza viral replication in mouse lung (plaque forming assay). As to conditions: in vivo, iv, 2 mg/kg. The arrangement: species or system mice.
In another data set the test system is serum IFN-alpha. As to the kind of experiment: Systemic Type 1 interferon response: serum IFN-alpha by ELISA. Particulars: siRNA in lyophilized ND(5)-98-1 nanoparticles, 2 mg/kg IV twice. For orientation: In an ELISA, binding on a coated surface is turned into a signal by an enzyme label.
Another data set deals with T1, TLR7 (Homo sapiens, UniProt Q9NYK1).
T1 construct: host or cells: human PBMCs (endogenous receptor)
T1 sequence (Q9NYK1 27-1049): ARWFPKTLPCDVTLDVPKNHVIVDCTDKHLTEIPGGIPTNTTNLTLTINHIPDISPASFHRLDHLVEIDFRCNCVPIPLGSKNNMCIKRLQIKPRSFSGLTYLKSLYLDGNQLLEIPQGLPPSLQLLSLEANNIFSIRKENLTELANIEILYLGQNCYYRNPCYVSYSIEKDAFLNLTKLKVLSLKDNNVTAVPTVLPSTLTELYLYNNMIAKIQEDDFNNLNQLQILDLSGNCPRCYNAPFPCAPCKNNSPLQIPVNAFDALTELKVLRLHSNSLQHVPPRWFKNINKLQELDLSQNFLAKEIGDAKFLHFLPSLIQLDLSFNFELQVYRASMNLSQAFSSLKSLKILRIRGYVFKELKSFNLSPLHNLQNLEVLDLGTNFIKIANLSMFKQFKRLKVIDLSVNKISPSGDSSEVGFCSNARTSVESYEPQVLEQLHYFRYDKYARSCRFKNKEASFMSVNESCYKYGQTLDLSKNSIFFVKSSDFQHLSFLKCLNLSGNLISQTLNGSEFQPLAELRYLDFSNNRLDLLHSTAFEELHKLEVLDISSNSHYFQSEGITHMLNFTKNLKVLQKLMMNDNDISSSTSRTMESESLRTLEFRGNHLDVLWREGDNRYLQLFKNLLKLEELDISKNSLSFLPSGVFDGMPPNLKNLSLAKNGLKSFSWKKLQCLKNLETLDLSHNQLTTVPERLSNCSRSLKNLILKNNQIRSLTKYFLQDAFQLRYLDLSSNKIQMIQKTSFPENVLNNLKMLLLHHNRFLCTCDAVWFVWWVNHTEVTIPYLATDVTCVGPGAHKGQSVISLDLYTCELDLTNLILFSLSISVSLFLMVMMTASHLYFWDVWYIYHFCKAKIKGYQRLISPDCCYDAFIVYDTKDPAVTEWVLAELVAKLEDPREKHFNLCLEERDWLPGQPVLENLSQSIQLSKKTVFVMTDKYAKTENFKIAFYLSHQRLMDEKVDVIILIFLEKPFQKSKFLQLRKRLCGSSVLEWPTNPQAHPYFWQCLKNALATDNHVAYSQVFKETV
Particulars: cited from earlier work.

The target of another data set is T2, TLR8 (Homo sapiens, UniProt Q9NR97).
T2 construct: a strong ligand for both TLR7 and TLR8 in vitro in human PBMCs tranfected with DOTAP; host or cells: human PBMCs (endogenous receptor)
T2 sequence (Q9NR97 27-1041): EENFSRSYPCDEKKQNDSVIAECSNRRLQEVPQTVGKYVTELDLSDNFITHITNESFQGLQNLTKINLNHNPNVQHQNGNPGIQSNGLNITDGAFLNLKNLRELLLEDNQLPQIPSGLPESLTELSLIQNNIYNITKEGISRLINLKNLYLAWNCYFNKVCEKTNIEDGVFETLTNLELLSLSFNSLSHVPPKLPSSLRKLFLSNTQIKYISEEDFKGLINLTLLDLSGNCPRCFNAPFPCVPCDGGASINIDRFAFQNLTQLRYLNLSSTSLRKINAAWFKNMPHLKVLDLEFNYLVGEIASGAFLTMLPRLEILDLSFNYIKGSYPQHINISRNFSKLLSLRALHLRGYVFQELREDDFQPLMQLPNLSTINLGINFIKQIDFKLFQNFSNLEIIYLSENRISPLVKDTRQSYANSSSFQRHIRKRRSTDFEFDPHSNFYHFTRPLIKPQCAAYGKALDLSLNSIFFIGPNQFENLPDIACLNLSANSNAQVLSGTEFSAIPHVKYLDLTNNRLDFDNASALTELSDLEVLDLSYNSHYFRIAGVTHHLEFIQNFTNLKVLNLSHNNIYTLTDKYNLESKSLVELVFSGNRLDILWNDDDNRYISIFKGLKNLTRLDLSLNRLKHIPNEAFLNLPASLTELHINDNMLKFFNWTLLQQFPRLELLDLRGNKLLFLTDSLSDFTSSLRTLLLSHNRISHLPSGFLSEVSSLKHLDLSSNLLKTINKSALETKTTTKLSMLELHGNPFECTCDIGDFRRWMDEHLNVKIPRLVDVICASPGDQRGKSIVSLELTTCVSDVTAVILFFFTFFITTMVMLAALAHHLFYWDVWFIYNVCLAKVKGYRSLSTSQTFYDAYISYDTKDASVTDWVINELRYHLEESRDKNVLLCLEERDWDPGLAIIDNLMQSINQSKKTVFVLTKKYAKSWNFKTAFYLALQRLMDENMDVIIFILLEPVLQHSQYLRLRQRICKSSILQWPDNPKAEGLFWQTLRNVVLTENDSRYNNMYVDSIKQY
As to conditions: cited from earlier work.

Data on 4 substances can be found in patent US20120009222A1, “MODULATION OF THE IMMUNE RESPONSE” (priority 2008, published 2012).

Procedure for serum IFN-alpha: Mice were injected IV twice with lyophilized ND(5)-98-1 (ND98)-siRNA nanoparticles at 2 mg/kg siRNA prior to (a) infection with 12,000 PFU, or (b) blood collection by cardiac puncture. […] (b) Serum IFN-alpha concentration was determined by ELISA.

Turning to 5′-GGAUCUUAUUUCUUCGGAGUU-3′ [siNP-1496], the “viral titer versus nanoparticles formulated with siGFP-949” value with influenza virus is on record as “significant reductions”. In the data set on serum IFN-alpha, the “serum IFN-alpha” value was “high levels”.
For “5′-UUGUUGUUGUUGUUGUUGUU-3′ (all phosphorothioate, sugars by position not given here; lipidoid formulation) [R1362]”, the TLR7 agonist activity result with TLR7 is listed as “highly active”. Also, the TLR8 agonist activity entry with TLR8 is reported as “highly active”.
“5′-GCCACCGAGCCGAAGGCACC-3′ (all phosphorothioate, sugars by position and methylation of C not given here; lipidoid formulation) [R1263]”: in the data set with TLR7, the TLR7 agonist activity entry is on record as “low”. In the data set with TLR8, the TLR8 agonist activity entry is recorded as “low”.
Consider “5′-CUACACAAAUCAGCGAUUUUU-3′ [siBgal-728]”, for which the “viral titer versus nanoparticles formulated with siGFP-949” value in the data set with influenza virus was “significant reductions”. The “serum IFN-alpha” value in the data set with serum IFN-alpha is listed as “high levels”.
